molecular target: EGFR (UniProt P00533); test: Inhibition of EGFR Kinase Activity
Sequence (P00533 whole entry, looked up): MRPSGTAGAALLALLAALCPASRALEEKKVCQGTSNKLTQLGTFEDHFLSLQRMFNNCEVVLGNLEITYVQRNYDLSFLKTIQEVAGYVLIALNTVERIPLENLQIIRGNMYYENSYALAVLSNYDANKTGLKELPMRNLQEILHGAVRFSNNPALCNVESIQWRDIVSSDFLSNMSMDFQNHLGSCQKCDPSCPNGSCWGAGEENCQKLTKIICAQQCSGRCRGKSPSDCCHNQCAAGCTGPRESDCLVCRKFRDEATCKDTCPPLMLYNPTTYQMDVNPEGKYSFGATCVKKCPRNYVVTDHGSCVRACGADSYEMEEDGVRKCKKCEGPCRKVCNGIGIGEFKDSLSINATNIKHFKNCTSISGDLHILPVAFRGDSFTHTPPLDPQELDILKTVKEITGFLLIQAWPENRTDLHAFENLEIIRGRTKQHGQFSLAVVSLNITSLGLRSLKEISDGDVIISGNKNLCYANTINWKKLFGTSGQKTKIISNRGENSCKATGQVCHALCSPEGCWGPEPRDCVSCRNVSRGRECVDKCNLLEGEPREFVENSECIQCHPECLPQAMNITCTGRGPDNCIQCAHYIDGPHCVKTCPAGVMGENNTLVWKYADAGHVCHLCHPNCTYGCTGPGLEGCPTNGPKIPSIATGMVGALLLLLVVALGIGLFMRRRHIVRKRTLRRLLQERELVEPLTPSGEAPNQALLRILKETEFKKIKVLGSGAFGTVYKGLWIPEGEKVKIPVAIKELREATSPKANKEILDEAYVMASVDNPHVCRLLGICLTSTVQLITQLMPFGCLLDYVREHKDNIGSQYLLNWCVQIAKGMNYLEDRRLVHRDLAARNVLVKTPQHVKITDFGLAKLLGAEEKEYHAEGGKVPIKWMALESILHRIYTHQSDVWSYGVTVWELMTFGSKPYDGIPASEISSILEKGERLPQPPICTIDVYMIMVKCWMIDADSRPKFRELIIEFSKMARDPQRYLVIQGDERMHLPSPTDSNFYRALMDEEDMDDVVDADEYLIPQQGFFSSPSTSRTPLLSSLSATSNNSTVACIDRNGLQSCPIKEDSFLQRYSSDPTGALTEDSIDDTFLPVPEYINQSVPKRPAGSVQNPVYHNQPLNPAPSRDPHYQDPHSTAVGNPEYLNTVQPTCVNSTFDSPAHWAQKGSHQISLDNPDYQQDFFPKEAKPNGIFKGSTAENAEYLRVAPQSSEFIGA

IC50	SMILES
< 50 µM	CC#CC(=O)Nc1cccc(Nc2ncnc(Nc3cccc(C)c3)n2)c1
< 50 µM	C=CC(=O)Nc1ccc(Nc2ncnc(N(CC)c3cccc(Cl)c3)n2)cc1
< 50 µM	C=CC(=O)Nc1cccc(Nc2ncnc(Nc3ccc4nc(Cc5ccccc5)[nH]c4c3)n2)c1
< 50 µM	C=CC(=O)Nc1cccc(Nc2ncnc(Nc3ccc(OCc4cccc(F)c4)cc3)n2)c1
< 50 µM	C=CCN(c1ncnc(Nc2ccc(NC(=O)C=C)cc2)n1)N1CNc2ccccc21
< 50 µM	C=CC(=O)Nc1ccc(Nc2ncnc(N(CC)c3ccc(OCCC)c(OCCC)c3)n2)cc1
< 50 µM	C=CC(=O)Nc1cccc(Nc2ncnc(Nc3ccc(OCc4ccc(F)c(F)c4)c(F)c3)n2)c1
< 50 µM	C=CC(=O)Nc1ccc(Nc2ncnc(N(CC)c3cc(Cl)ccc3C)n2)cc1
< 50 µM	C=CC(=O)Nc1cccc(Nc2ncnc(Nc3ccc(C(=O)OC)cc3)n2)c1
< 50 µM	C=CC(=O)Nc1cc(Nc2ncnc(N(C)c3ccc4c(ccn4Cc4ccccc4)c3)n2)ccc1OCCCN1CCOCC1
< 50 µM	CC#CC(=O)Nc1cccc(Nc2ncnc(N(CC)c3cc(OC)c(OC)c(OCCN4CCOCC4)c3)n2)c1
< 50 µM	CC#CC(=O)Nc1cccc(Nc2ncnc(N(CC)c3ccc4c(cnn4Cc4ccccc4)c3)n2)c1
< 50 µM	C=CC(=O)Nc1cc(Nc2ncnc(N(C)c3ccc4c(ccn4Cc4ccccc4)c3)n2)ccc1OCCCC1CCN(C)CC1

The remaining lines, values behind:

SMILES	IC50
C=CCN(c1ncnc(Nc2ccc(NC(=O)C=C)cc2)n1)c1cc(Cl)ccc1C	< 50 µM
C=CC(=O)N(CCCN1CCOCC1)c1cccc(Nc2ncnc(N(C)c3ccc4c(cnn4Cc4ccccc4)c3)n2)c1	< 50 µM
CC#CC(=O)Nc1cccc(Nc2ncnc(N(CC)C3CC3c3ccc(Cl)cc3)n2)c1 (configuration not stated)	< 50 µM
C=CC(=O)Nc1cccc(Nc2ncnc(NC3CC3c3ccccc3)n2)c1 (configuration not stated)	< 50 µM
CC#CC(=O)Nc1cccc(Nc2ncnc(Nc3cccc(S(=O)(=O)c4ccc([N+](=O)[O-])cc4)c3)n2)c1	< 50 µM
C=CC(=O)Nc1ccc(Nc2ncnc(N(CC)c3ccc(OCc4ccccc4)cc3)n2)cc1	< 50 µM
C=CC(=O)N(CCCN1CCOCC1)c1cccc(Nc2ncnc(Nc3ccc(OC)c(OC)c3)n2)c1	< 50 µM
C=CCN(c1ccc(OCCC)c(OCCC)c1)c1ncnc(Nc2cccc(NC(=O)C#CC)c2)n1	< 50 µM
C=CCN(c1ccc(F)c(Cl)c1)c1ncnc(Nc2cccc(NC(=O)C=C)c2)n1	< 50 µM
CC#CC(=O)Nc1cccc(Nc2ncnc(Nc3ccc(F)c(Cl)c3)n2)c1	< 50 µM
CC#CC(=O)Nc1cccc(Nc2ncnc(N(CC)c3cccc(CC(=O)OC)c3)n2)c1	< 50 µM
CC#CC(=O)Nc1cc(Nc2ncnc(Nc3cccc(Cl)c3)n2)ccc1OCCCN1CCOCC1	< 50 µM
C=CC(=O)N1CCc2ccc(Nc3ncnc(Nc4ccc5c(cnn5Cc5ccccc5)c4)n3)cc21	< 50 µM
C=CC(=O)N(CCCN1CCOCC1)c1cccc(Nc2ncnc(Nc3cccc4ccccc34)n2)c1	< 50 µM
C#CCC(=O)Nc1cccc(Nc2ncnc(NN3CCCc4cc(OC)ccc43)n2)c1	< 50 µM
CC#CC(=O)Nc1cccc(Nc2ncnc(N(C)c3ccc4c(ccn4Cc4ccccc4)c3)n2)c1	< 50 µM
C=CCN(c1ccc(OCC)c(OCC)c1)c1ncnc(Nc2cccc(NC(=O)C#CC)c2)n1	< 50 µM
C=CC(=O)N(CCCN1CCOCC1)c1cccc(Nc2ncnc(Nc3cc(Cl)ccc3C)n2)c1	< 50 µM
C=CC(=O)Nc1cccc(Nc2ncnc(N(CC)n3c(=O)[nH]c4ccccc43)n2)c1	< 50 µM
C=CCN(c1ccc(OCCOC)c(OC)c1)c1ncnc(Nc2ccc(NC(=O)C=C)cc2)n1	< 50 µM
C=CC(=O)Nc1cccc(Nc2ncnc(N(C)c3ccc(OCCO)cc3)n2)c1	< 50 µM
C=CC(=O)Nc1cc(Nc2ncnc(Nc3ccc(OCc4ccccc4)c(Cl)c3)n2)ccc1OCCCN1CCOCC1	< 50 µM
C=CC(=O)Nc1ccc(Nc2ncnc(Nc3ccc4c(ccn4Cc4ccccc4)c3)n2)cc1	< 50 µM
CC#CC(=O)Nc1cccc(Nc2ncnc(N(CC)c3ccc(F)c(Cl)c3)n2)c1	< 50 µM

— the Kinase Knowledgebase extract (Sharma et al. 2016)
